What was measured:
Type in all cases: in vivo
[1] = test system: upland rice (Oryza sp., var.Cocodrie, RICE); test: Greenhouse herbicide screen, post-emerge application, crop damage rating; details: POST emergent, 14 days after application, scale 0-100
Excerpt: (§1) A standard greenhouse herbicide activity screening system was used to evaluate the herbicidal efficacy and crop safety of these test compounds. Seven broadleaf weed species including redroot pigweed (Amaranthus retrofiexus, AMARE), velvetleaf (Abutilon theophrasti, ABUTH), sicklepod (Cassia obtusifolia, CASOB), ivyleaf morningglory (Ipomoea hederacea, IPOHE), lambsquarters (Chenopodium album, CHEAL), common ragweed (Ambrosia artemisiifolia L., AMBEL), and cocklebur (Xanthium strumarium, XANST) were used as test species. Four grass weed species including green foxtail (Setaria viridis, SETVI), barnyardgrass (Echinochloa crus-galli, ECHCG), johnsongrass (Sorghum halepense, SORHA), and large crabgrass (Digitaria sanguinalis, DIGSA) were also used. In addition, four crop species, field corn (Zea mays L., var. Dekalb 535, CORN), soybean (Glycine max L., var. Pella 86, SOY), upland rice (Oryza sp., var.Cocodrie, RICE) and wheat (Triticum aestivum L.) were included.
(§2) All plants were grown in 10 cm square plastic pots which were filled with a sandy loam soil mix. For pre-emerge tests, seeds were planted one day prior to application of the test compounds. For post-emerge tests, seeds were planted 8-21 days prior to the test to allow emergence and good foliage development prior to application of the test substances. At the time of the post-emerge application, plants of all species were usually at the 2-3 leaf stage of development.
(§3) All test compounds were dissolved in acetone and applied to the test units in a volume of 187 l/ha. Test materials were applied at rates ranging from 15 g ai/ha to 1000 g ai/ha using a track sprayer equipped with a TJ8001E even flow flat fan spray nozzle. Plants were arranged on a shelf so that the top of the canopy (post-emerge) or top of the soil surface (pre-emerge) was 40-45 cm below the nozzle. Pressurized air was used to force the test solution through the nozzle as it was mechanically advanced (via electrically driven chain drive) over the top of all test plants/pots. This application simulates a typical commercial field herbicide application.
(§4) Pre-emergence tests were top watered immediately after treatment to incorporate the test materials, then routinely top-watered for normal growth. Post-emerge test units were always bottom-watered.
(§5) At 14 days after application of the test materials, phytotoxicity ratings were recorded. A rating scale of 0-100 was used as previously described in Research Methods in Weed Science, 2nd edition, B. Truelove, Ed., Southern Weed Science Society, Auburn University, Auburn, Ala., 1977. Briefly, “0” corresponds to no damage and “100” corresponds to complete death of all plants in the test unit. This scale was used both to determine efficacy against weed species and damage to crop species. Herbicide activity data for various compounds of this invention, which are shown by compound No. in Tables 1-12, are shown in Tables 13 and 14.

[2] = test system: field corn (Zea mays L., var. Dekalb 535, CORN); test: as above; details: POST emergent, 14 days after application, scale 0-100
Excerpt: as §1, §2, §3, §4, §5

[3] = test system: sicklepod (Cassia obtusifolia, CASOB); test: Greenhouse herbicide screen, pre-emerge application, phytotoxicity rating; details: PRE emergent, 14 days after application, rating scale 0-100
Excerpt: as §1, §2, §3, §4, §5

[4] = test system: large crabgrass (Digitaria sanguinalis, DIGSA); test: as above; details: PRE emergent, 14 days after application, rating scale 0-100
Excerpt: as §1, §2, §3, §4, §5

[5] = test system: ivyleaf morningglory (Ipomoea hederacea, IPOHE); test: as above; details: PRE emergent, 14 days after application, rating scale 0-100
Excerpt: as §1, §2, §3, §4, §5

[6] = test system: velvetleaf (Abutilon theophrasti, ABUTH); test: as above; details: PRE emergent, 14 days after application, rating scale 0-100
Excerpt: as §1, §2, §3, §4, §5

[7] = test system: green foxtail (Setaria viridis, SETVI); test: as above; details: PRE emergent, 14 days after application, rating scale 0-100
Excerpt: as §1, §2, §3, §4, §5

[8] = test system: redroot pigweed (Amaranthus retrofiexus, AMARE); test: as above; details: PRE emergent, 14 days after application, rating scale 0-100
Excerpt: as §1, §2, §3, §4, §5

[9] = test system: cocklebur (Xanthium strumarium, XANST); test: as above; details: PRE emergent, 14 days after application, rating scale 0-100
Excerpt: as §1, §2, §3, §4, §5

[10] = test system: barnyardgrass (Echinochloa crus-galli, ECHCG); test: as above; details: PRE emergent, 14 days after application, rating scale 0-100
Excerpt: as §1, §2, §3, §4, §5

[11] = test system: common ragweed (Ambrosia artemisiifolia L., AMBEL); test: as above; details: PRE emergent, 14 days after application, rating scale 0-100
Excerpt: as §1, §2, §3, §4, §5

[12] = test system: johnsongrass (Sorghum halepense, SORHA); test: as above; details: PRE emergent, 14 days after application, rating scale 0-100
Excerpt: as §1, §2, §3, §4, §5

[13] = test system: lambsquarters (Chenopodium album, CHEAL); test: as above; details: PRE emergent, 14 days after application, rating scale 0-100
Excerpt: as §1, §2, §3, §4, §5

[14] = test system: upland rice (Oryza sp., var.Cocodrie, RICE); test: Greenhouse herbicide screen, pre-emerge application, crop damage rating; details: PRE emergent, 14 days after application, rating scale 0-100
Excerpt: as §1, §2, §3, §4, §5

[15] = test system: field corn (Zea mays L., var. Dekalb 535, CORN); test: as above; details: PRE emergent, 14 days after application, rating scale 0-100
Excerpt: as §1, §2, §3, §4, §5

[16] = test system: sicklepod (Cassia obtusifolia, CASOB); test: Greenhouse herbicide screen, post-emerge application, phytotoxicity rating; details: POST emergent, 14 days after application, scale 0-100
Excerpt: as §1, §2, §3, §4, §5

[17] = test system: large crabgrass (Digitaria sanguinalis, DIGSA); test: as above; details: POST emergent, 14 days after application, scale 0-100
Excerpt: as §1, §2, §3, §4, §5

[18] = test system: ivyleaf morningglory (Ipomoea hederacea, IPOHE); test: as above; details: POST emergent, 14 days after application, scale 0-100
Excerpt: as §1, §2, §3, §4, §5

[19] = test system: velvetleaf (Abutilon theophrasti, ABUTH); test: as above; details: POST emergent, 14 days after application, scale 0-100
Excerpt: as §1, §2, §3, §4, §5

[20] = test system: green foxtail (Setaria viridis, SETVI); test: as above; details: POST emergent, 14 days after application, scale 0-100
Excerpt: as §1, §2, §3, §4, §5

[21] = test system: redroot pigweed (Amaranthus retrofiexus, AMARE); test: as above; details: POST emergent, 14 days after application
Excerpt: as §1, §2, §3, §4, §5

[22] = test system: cocklebur (Xanthium strumarium, XANST); test: as above; details: POST emergent, 14 days after application, scale 0-100
Excerpt: as §1, §2, §3, §4, §5

[23] = test system: barnyardgrass (Echinochloa crus-galli, ECHCG); test: as above; details: POST emergent, 14 days after application, scale 0-100
Excerpt: as §1, §2, §3, §4, §5

[24] = test system: common ragweed (Ambrosia artemisiifolia L., AMBEL); test: as above; details: POST emergent, 14 days after application, scale 0-100
Excerpt: as §1, §2, §3, §4, §5

[25] = test system: johnsongrass (Sorghum halepense, SORHA); test: as above; details: POST emergent, 14 days after application, scale 0-100
Excerpt: as §1, §2, §3, §4, §5

[26] = test system: lambsquarters (Chenopodium album, CHEAL); test: as above; details: POST emergent, 14 days after application, scale 0-100
Excerpt: as §1, §2, §3, §4, §5

CN(NC(=O)c1cc(-n2c(=O)cc(C(F)(F)F)n(C)c2=O)c(F)cc1Cl)c1ccccc1 [Compound 1-9]
45: crop damage rating RICE ([1]; 63 g ai/ha) | crop damage rating RICE ([14]; 250 g ai/ha)
10: crop damage rating CORN ([15]; 63 g ai/ha)
60: phytotoxicity rating IPOHE ([5]; 63 g ai/ha) | phytotoxicity rating SORHA ([12]; 63 g ai/ha) | phytotoxicity rating SETVI ([20]; 63 g ai/ha)
80: phytotoxicity rating SETVI ([7]; 250 g ai/ha) | phytotoxicity rating CASOB ([16]; 63 g ai/ha)
70: phytotoxicity rating DIGSA ([4]; 250 g ai/ha) | phytotoxicity rating XANST ([9]; 250 g ai/ha) | phytotoxicity rating ECHCG ([10]; 250 g ai/ha) | phytotoxicity rating DIGSA ([17]; 63 g ai/ha)
100: crop damage rating CORN ([2]; 250 g ai/ha) | phytotoxicity rating IPOHE ([5]; 250 g ai/ha) | phytotoxicity rating ABUTH ([6]; 250 g ai/ha) | phytotoxicity rating AMARE ([8]; 63 g ai/ha) | phytotoxicity rating AMARE ([8]; 250 g ai/ha) | phytotoxicity rating CHEAL ([13]; 250 g ai/ha) | phytotoxicity rating IPOHE ([18]; 63 g ai/ha) | phytotoxicity rating IPOHE ([18]; 250 g ai/ha) | phytotoxicity rating ABUTH ([19]; 63 g ai/ha) | phytotoxicity rating ABUTH ([19]; 250 g ai/ha) | phytotoxicity rating AMARE ([21]; 63 g ai/ha, scale 0-100 (0 no damage, 100 complete death)) | phytotoxicity rating AMARE ([21]; 250 g ai/ha, scale 0-100) | phytotoxicity rating XANST ([22]; 63 g ai/ha) | phytotoxicity rating XANST ([22]; 250 g ai/ha) | phytotoxicity rating ECHCO ([23]; 250 g ai/ha) | phytotoxicity rating AMBEL ([24]; 250 g ai/ha) | phytotoxicity rating CHEAL ([26]; 63 g ai/ha) | phytotoxicity rating CHEAL ([26]; 250 g ai/ha)
20: phytotoxicity rating XANST ([9]; 63 g ai/ha)
50: crop damage rating RICE ([1]; 250 g ai/ha) | phytotoxicity rating DIGSA ([4]; 63 g ai/ha) | phytotoxicity rating AMBEL ([11]; 63 g ai/ha)
95: phytotoxicity rating ABUTH ([6]; 63 g ai/ha) | phytotoxicity rating CASOB ([16]; 250 g ai/ha) | phytotoxicity rating DIGSA ([17]; 250 g ai/ha) | phytotoxicity rating SETVI ([20]; 250 g ai/ha)
30: phytotoxicity rating CASOB ([3]; 63 g ai/ha)
98: phytotoxicity rating ECHCO ([23]; 63 g ai/ha)
75: crop damage rating CORN ([2]; 63 g ai/ha) | crop damage rating CORN ([15]; 250 g ai/ha) | phytotoxicity rating SORHA ([25]; 63 g ai/ha)
90: phytotoxicity rating CASOB ([3]; 250 g ai/ha)
99: phytotoxicity rating AMBEL ([11]; 250 g ai/ha) | phytotoxicity rating SORHA ([12]; 250 g ai/ha) | phytotoxicity rating CHEAL ([13]; 63 g ai/ha) | phytotoxicity rating AMBEL ([24]; 63 g ai/ha) | phytotoxicity rating SORHA ([25]; 250 g ai/ha)
40: phytotoxicity rating SETVI ([7]; 63 g ai/ha) | phytotoxicity rating ECHCG ([10]; 63 g ai/ha)
0: crop damage rating RICE ([14]; 63 g ai/ha)

From US6770597B2, “Benzohydrazide derivatives as herbicides and desiccant compositions containing them” (Ishihara Sangyo Kaisha, Ltd., priority 2002, dated 2004)
